Numbering of substitutions follows the chain as printed.

In test [1] the target is T1, human EP1 receptor described in Japanese Patent No. 3,090,472 (Homo sapiens, UniProt P34995, A71T/L230H).
T1 construct: expressed in transfected cells; host or cells: cells expressing the receptor of JP 3,090,472
T1 sequence (P34995 1-402 A71T/L230H): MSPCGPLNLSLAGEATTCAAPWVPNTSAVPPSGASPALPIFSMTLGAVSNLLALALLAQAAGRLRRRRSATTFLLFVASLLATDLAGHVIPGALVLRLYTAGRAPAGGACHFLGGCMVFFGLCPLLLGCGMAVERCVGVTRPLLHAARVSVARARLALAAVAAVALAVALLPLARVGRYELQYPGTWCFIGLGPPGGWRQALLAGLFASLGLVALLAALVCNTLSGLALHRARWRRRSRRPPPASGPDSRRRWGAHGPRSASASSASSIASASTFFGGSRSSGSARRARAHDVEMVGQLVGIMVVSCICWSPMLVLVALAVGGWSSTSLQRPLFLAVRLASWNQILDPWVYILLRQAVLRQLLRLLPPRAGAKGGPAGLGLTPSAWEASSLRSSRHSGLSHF
In words: Measurement of intracellular Ca2+ concentration in cells expressing human EP1 receptor described in Japanese Patent No. 3,090,472. To be noted: cells expressing human EP1 receptor of Japanese Patent No. 3,090,472 (reference); Fura2-AM fluorescence. The format is cell-based. Here is the method:
(§1) The cells were cultured in 500 cm^2 treys to reach confluence, washed with PBS(−), and peeled off by pipeting with PBS(−) on ice. After centrifugation at 800 rpm for 3 minutes, the cell pellet was suspended in medium A (15 ml) and incubated at 37° C. for 50 minutes followed by at room temperature for 10 minutes. After re-centrifugation the pellet was suspended in medium B (1-2×10^6/ml) and used for experiments. In the case that cell suspension contains Fura2-AM (Dojin), the operations were shielded the light by aluminum foil. Stirring the cell suspensions (400 μl) at 600 rpm, the changes of intracellular Ca^2+ concentration were measured by monitoring the changes of fluorescence intensity at both 340 nm and 380 nm and the ratio thereof, using CAM-220 Spectrofluorometer (Nihon Bunko Kogyo).
(§2) Medium A: • α-MEM containing fura2-AM (5 μM)), indomethacin (10 μM), HEPES-NaOH (pH7.4, 10 mM) and 10% FCS,
(§3) Medium B: • α-MEM containing indomethacin (1 μM), HEPES-NaOH (pH7.4, 10 mM) and 0.1% BSA.
(§4) The changes in intracellular Ca^2+ concentration using the cells expressing human EP1 receptor of the present invention and the cells expressing human EP1 receptor described in Japanese Patent No. 3,090,472 were shown in FIG. 3. In FIG. 3, “reference” means the result obtained by using the cells expressing human EP1 receptor described in Japanese Patent No. 3,090,472.

In test [2] the target is T2, human EP1 receptor of the present invention (Homo sapiens, UniProt P34995).
T2 construct: The cDNA insert was cut off from pT7BluehEP1 by EcoR1 digestion, and inserted into EcoR1 site of expression vector pdKCR-dhfr; expressed in transfected cells; A1 used their membrane fraction, A3 used whole cells
T2 sequence (P34995 1-402): T1 sequence (P34995 1-402 A71T/L230H) with T71A, H230L
The experiment in a line: Measurement of intracellular Ca2+ concentration in cells expressing human EP1 receptor of the present invention. The format is cell-based. The conditions noted are these: Fura2-AM fluorescence. The procedure: as §1, §2, §3, §4

The target of test [3] is T1, human EP1 receptor described in Japanese Patent No. 3,090,472. The experiment in a line: Binding assay of [3H]-PGE2 with cells expressing human EP1 receptor described in Japanese Patent No. 3,090,472. To be noted: cells expressing human EP1 receptor of Japanese Patent No. 3,090,472 (reference). The procedure:
Reaction mixtures (200 μl) containing the membrane fraction, which was prepared by the above method and contains human EP1 receptor, and various concentrations of [3H]-PGE2 were incubated at room temperature for a certain time, separated by rapid filtration using Cell Harvester (Brandel). The membrane fraction was recovered on glass filter and washed several times with the buffer cooled on ice (1-2 ml/wash). Residual [3H]-PGE2 bound to the filter (total binding) was quantitated by liquid scintillation counter. Nonspecific binding was quantitated in a similar manner in the presence of 10 μM of PGE2. Specific binding was defined as the difference between total binding and nonspecific binding.
The specific binding thus obtained was analyzed by Scatchard plots, an equilibrium dissociation constant (Kd; nM) and a maximum number of specific binding sites (Bmax; fmol/mg protein) were determined. The result obtained using the cells expressing human EP1 of the present invention was shown in FIG. 1, and the result obtained using the cells expressing human EP1 described in Japanese Patent No. 3,090,472 in FIG. 2, respectively.

Test [4] has as its target T2, human EP1 receptor of the present invention. The experiment in a line: Binding assay of [3H]-PGE2 with membrane fraction of CHO cells expressing human EP1 receptor of the present invention. The conditions noted are these: nonspecific binding with 10 μM PGE2. Here is the method:
1) Gene Transfection into CHO Cells and Isolation of Clones Expressing Human EP1 Receptor
The cDNA insert was cut off from pT7BluehEP1 by EcoR1 digestion, and inserted into EcoR1 site of expression vector pdKCR-dhfr in the proper orientation. Approximately 25-50 ug of expression plasmid was digested completely with proper restriction enzymes (SalI, SacII etc.), purified by Phenol/CIAA extraction, CIAA extraction and ethanol precipitation, and dissolved in 50 μl of sterilized water. CHO-dhfr(−) cells used as host were suspended in 1.0-1.5×10^6 cells/0.8 ml of PBSuc buffer (sucrose 272 mM, K^+PO4^2− buffer (7 mM, pH7.4) and MgCl2 (1 mM)). […]
Reaction mixtures (200 μl) containing the membrane fraction, which was prepared by the above method and contains human EP1 receptor, and various concentrations of [3H]-PGE2 were incubated at room temperature for a certain time, separated by rapid filtration using Cell Harvester (Brandel). […] Residual [3H]-PGE2 bound to the filter (total binding) was quantitated by liquid scintillation counter. Nonspecific binding was quantitated in a similar manner in the presence of 10 μM of PGE2. […]
The specific binding thus obtained was analyzed by Scatchard plots, an equilibrium dissociation constant (Kd; nM) and a maximum number of specific binding sites (Bmax; fmol/mg protein) were determined. […]

`CCCCC[C@H](O)/C=C/[C@H]1[C@H](O)CC(=O)[C@@H]1C/C=C\CCCC(=O)O` [PGE2, prostaglandin E2]: the “PGE2 dependent elevation of intracellular Ca2+ concentration” value in test [1] is reported as “not detected at all”; in test [2] it was “detected”.
As to `CCCCC[C@H](O)/C=C/[C@H]1[C@H](O)CC(=O)[C@@H]1C/C=C\CCCC(=O)O` [[^3H]-PGE2], the “specific binding of [3H]-PGE2 to the receptor” value in test [3] was “detected”; in test [4], “extremely high specific binding”.
